Laboratory results published in patent US20090197811A1, “ORALLY ADMINISTERED PEPTIDES TO IMPROVE OR PREVENT HEPATIC FIBROSIS” (University of Southern California, priority 2007, published 2009).
Where “and” joins values, the source holds several entries; their conditions need not be identical. Identical values can stand only once. Entries after “also recorded” stand apart in the source; their conditions may differ. Non-standard residues stand in square brackets, D forms with d.

Key:
C57Bl/6J mice [1] = assay: Western diet model: α-smooth muscle actin staining of liver sections; assay type: in vivo, mouse; conditions: mice on the Western diet treated with D-4F (FIG. 4E)
Procedure: (§1) Studies were performed in male C5713L/6J mice (Jackson Laboratories, Bar Harbor Me.). Six groups were studied (n=3-5, see FIG. 1) with 4 mice per group at the outset, except for group 2, which was started with n=5; 1 mouse died in group 1. Groups 1, 2, and 3 received the Western diet for 9.5 months; during the last 2.5 months of the 9.5 months, group 2 received SR141716 10 mg/kg/day i.g., and group 3 received D-4F, 125 μg/mouse/day, in the drinking water. Groups 4, 5, and 6 received the Western diet for 7 months followed by standard chow for 2.5 months; during the 2.5 months on standard chow, group 5 received SR141716 and group 6 received D-4F as described for groups 2 and 3, respectively. Additional control groups were studied: 6-month old C57Bl/6J mice as age-matched controls (n=5) and C57Bl/6J mice that received the Western diet for 6 months (n=6).
Sections of formalin-fixed, paraffin-embedded liver, 7 μm thick, were used for α-smooth muscle actin immunofluorescence staining. Slides were deparaffinized in xylene and serially rehydrated in graded ethanol (100-70%). Slides were treated with 0.1 M tris-HCl (pH 7.6)/0.05 Tween-20 for 5 min, incubated with 1 μg/ml proteinase K (Sigma, St Louis Mo.)) for 15 min at room temperature, and then rinsed in water for 10 min. […]

C57Bl/6J mice [2] = assay: Western diet model: liver histology, assessment of steatosis and inflammation; assay type: in vivo, mouse; conditions: for Fatty Change Degree of fat / Fatty Change Type (predominant type) / Inflammatory Clusters: individual mice
Procedure: as §1
The slides were coded, without the pathologist knowing the specific treatment group that the slides represented. The histology was graded according to a number of histologic features. The degree of fat was graded as to the approximate percentage of hepatocytes containing fat: 0, absent; +/−, less than 5%; 1+, 5-25%; 2+. 26-50%; 3+, 51-75%; 4+, >75%. The fat was also assessed as to whether it was totally macrovesicular, predominantly macrovesicular, totally microvesicular, predominantly microvesicular, or mixed macro- and microvesicular. In addition, the zone was assessed as to whether the fat was perivenular, periportal, diffuse, or focal. Inflammation was graded as absent, scanty (1 to 3 foci/slide), present (scattered, with 4 to 10 foci/slide), present + (scattered, >10 foci/slide but not numerous), and present ++ (numerous). The type of inflammation was graded as totally mononuclear, predominantly mononuclear, totally neutrophilic, predominantly neutrophilic, and mixed mononuclear-neutrophilic. The hydropic change of hepatocytes was graded as absent, mild, and moderate/severe, with the location noted as perivenular, focal or diffuse.

[3] = test system: murine hepatic stellate cells (HSC); assay: Culture-induced activation of primary hepatic stellate cells (ASMA and oil red O staining); assay type: cell-based, mouse
Procedure: Murine hepatic stellate cells (HSC) were isolated by collagenase/pronase digestion and Stractan density gradient centrifugation^16. α-Smooth muscle actin (ASMA) staining: HSC were cultured on glass coverslips and fixed with 10% formaldehyde (EM Science, Gibbstown, N.J.) for 20 minutes at room temperature. Cells were incubated with a mouse monoclonal anti-ASMA (1:250 or 1:50, as indicated), followed by a rabbit anti-mouse IgG TRITC conjugate (1:50, Santa Cruz Scientific, Santa Cruz, Calif.). Slides were examined using a Nikon PCM-2000 confocal microscope with a Nikon Eclipse TE300 microscope with a plan Apo 60×/1.4 aperture oil immersion objective, 543-nm laser, and Simple PCI software from the C-Imaging series from Nikon/Compix Inc (Cranberry Township Pa.). Values were obtained by counting the number of ASMA positive cells in 15 randomly selected fields in triplicate. […]
To examine the mechanism of action of D-4F, murine hepatic stellate cells (HSC) were cultured on plastic for 7 days in the absence or presence of 10 μg/ml D-4F. Without D-4F, 87±2% of cells expressed α-smooth muscle actin (ASMA) after 7 days as assessed by confocal microscopy. In contrast, in the presence of D-4F 0% of HSC expressed ASMA after 7 days (see FIG. 7).

[4] = group 3 vs group 1, Western diet 9.5 months, D-4F last 2.5 months
[5] = 7 months Western diet followed by 2.5 months Western diet + drug
[6] = 7 months Western diet followed by 2.5 months chow + drug

Ac-D-W-F-K-A-F-Y-D-K-V-A-E-K-F-K-E-A-F-NH2 (Ac-[dD][dW][dF][dK][dA][dF][dY][dD][dK][dV][dA][dE][dK][dF][dK][dE][dA][dF]-NH2; not fully specified; printed as Ac-D-W-F-K-A-F-Y-D-K-V-A-E-K-F-K-E-A-F-NH2) [D-4F]
activated stellate cells in liver sections (α-smooth muscle actin staining) (C57Bl/6J mice [1]): decrease in activated stellate cells
inflammation, histologically (C57Bl/6J mice [2]; [4]): some evidence of a reduction
steatosis, histologically (C57Bl/6J mice [2]; [4]): no effect
inflammation, histologically (C57Bl/6J mice [2]; group 6 (switch to chow plus D-4F) vs group 4 (switch to chow)): perhaps a small decrease
Fatty Change Degree of fat (C57Bl/6J mice [2]; [5]): 4
Fatty Change Type (predominant type) (C57Bl/6J mice [2]; [5]): Macrovesicular
Inflammatory Clusters (C57Bl/6J mice [2]; [5]): 3 (3×) and 2
Fatty Change Degree of fat (C57Bl/6J mice [2]; [6]): 2 (2×) and 0 and 3
Fatty Change Type (predominant type) (C57Bl/6J mice [2]; [6]): Mixed
Inflammatory Clusters (C57Bl/6J mice [2]; [6]): 1 and 2 (3×)
steatohepatitis (summary) (C57Bl/6J mice [2]; summary statement): did not alter steatohepatitis
cytoplasmic fat (lipid) droplets, oil red O staining ([3]; HSC cultured 7 days in the presence of D-4F vs without): maintain significantly more lipid droplets; also recorded: maintained cytoplasmic fat droplets
hepatic stellate cell activation in vitro ([3]; summary statement): prevented hepatic stellate cell activation
